Reference: ChEMBL document CHEMBL1201862, “PubChem BioAssay data set” (2004)
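Dose response: 5 concentrations. Exposure: 48 h. Format: 96-well plates. Endpoint: linear interpolation; highest concentration if not reached. Abbreviation: GI50, concentration required for 50% inhibition of growth.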 The source made the active and inactive calls. Rule as the data show it: active = GI50 up to about 1.1 µM and inactive = higher.

What was measured:
Experiment in all cases: NCI-60 cell line screen, 48 h
786-0 = tested on: 786-0
A498 = tested on: A498
A549 = tested on: A549
ACHN = tested on: ACHN
BT-549 = tested on: BT-549
CAKI-1 = tested on: CAKI-1
CCRF-CEM = tested on: CCRF-CEM
COLO 205 = tested on: COLO 205
DU-145 = tested on: DU-145
EKVX = tested on: EKVX
HCC 2998 = tested on: HCC 2998
HCT-116 = tested on: HCT-116
HCT-15 = tested on: HCT-15
HL-60 = tested on: HL-60
HOP-62 = tested on: HOP-62
HOP-92 = tested on: HOP-92
HT-29 = tested on: HT-29
Hs-578T = tested on: Hs-578T
IGROV-1 = tested on: IGROV-1
K562 = tested on: K562
KM12 = tested on: KM12
LOX IMVI = tested on: LOX IMVI
M14 = tested on: M14
MCF7 = tested on: MCF7
MDA-MB-231 = tested on: MDA-MB-231
MDA-MB-435 = tested on: MDA-MB-435
MDA-N = tested on: MDA-N
MOLT-4 = tested on: MOLT-4
Malme-3M = tested on: Malme-3M
NCI-H226 = tested on: NCI-H226
NCI-H23 = tested on: NCI-H23
NCI-H460 = tested on: NCI-H460
NCI-H522 = tested on: NCI-H522
OVCAR-3 = tested on: OVCAR-3
OVCAR-4 = tested on: OVCAR-4
OVCAR-5 = tested on: OVCAR-5
OVCAR-8 = tested on: OVCAR-8
PC-3 = tested on: PC-3
RPMI-8226 = tested on: RPMI-8226
RXF 393 = tested on: RXF 393
SF-268 = tested on: SF-268
SF-295 = tested on: SF-295
SF-539 = tested on: SF-539
SK-MEL-28 = tested on: SK-MEL-28
SK-MEL-2 = tested on: SK-MEL-2
SK-MEL-5 = tested on: SK-MEL-5
SK-OV-3 = tested on: SK-OV-3
SN12C = tested on: SN12C
SNB-19 = tested on: SNB-19
SR = tested on: SR
SW-620 = tested on: SW-620
T47D = tested on: T47D
TK-10 = tested on: TK-10
U-251 = tested on: U-251
UACC-257 = tested on: UACC-257
UO-31 = tested on: UO-31
NCI/ADR-RES = tested on: NCI/ADR-RES
SNB-75 = tested on: SNB-75
UACC-62 = tested on: UACC-62

Q: Which results are given for `C=CCNC(=O)N1CC(C)C(=O)Nc2ccccc21` (centres undefined)?
A: GI50 (786-0): > 100 µM (inactive); GI50 (A498): > 100 µM (inactive); GI50 (A549): > 100 µM (inactive); GI50 (ACHN): > 100 µM (inactive); GI50 (BT-549): > 100 µM (inactive); GI50 (CAKI-1): > 100 µM (inactive); GI50 (CCRF-CEM): > 100 µM (inactive); GI50 (COLO 205): > 100 µM (inactive); GI50 (DU-145): > 100 µM (inactive); GI50 (EKVX): > 100 µM (inactive); GI50 (HCC 2998): > 100 µM (inactive); GI50 (HCT-116): > 100 µM (inactive); GI50 (HCT-15): > 100 µM; GI50 (HL-60): > 100 µM (inactive); GI50 (HOP-62): > 100 µM (inactive); GI50 (HOP-92): > 100 µM (inactive); GI50 (HT-29): > 100 µM (inactive); GI50 (Hs-578T): > 100 µM (inactive); GI50 (IGROV-1): > 100 µM (inactive); GI50 (K562): > 100 µM (inactive); GI50 (KM12): > 100 µM (inactive); GI50 (LOX IMVI): > 100 µM (inactive); GI50 (M14): > 100 µM (inactive); GI50 (MCF7): > 100 µM (inactive); GI50 (MDA-MB-231): > 100 µM (inactive); GI50 (MDA-MB-435): > 100 µM (inactive); GI50 (MDA-N): > 100 µM (inactive); GI50 (MOLT-4): > 100 µM (inactive); GI50 (Malme-3M): > 100 µM (inactive); GI50 (NCI-H226): > 100 µM (inactive); GI50 (NCI-H23): > 100 µM (inactive); GI50 (NCI-H460): > 100 µM (inactive); GI50 (NCI-H522): > 100 µM (inactive); GI50 (OVCAR-3): > 100 µM (inactive); GI50 (OVCAR-4): > 100 µM (inactive); GI50 (OVCAR-5): > 100 µM (inactive); GI50 (OVCAR-8): > 100 µM (inactive); GI50 (PC-3): > 100 µM (inactive); GI50 (RPMI-8226): > 100 µM (inactive); GI50 (RXF 393): > 100 µM (inactive); GI50 (SF-268): > 100 µM (inactive); GI50 (SF-295): > 100 µM (inactive); GI50 (SF-539): > 100 µM (inactive); GI50 (SK-MEL-28): > 100 µM (inactive); GI50 (SK-MEL-2): > 100 µM (inactive); GI50 (SK-MEL-5): > 100 µM (inactive); GI50 (SK-OV-3): > 100 µM (inactive); GI50 (SN12C): > 100 µM (inactive); GI50 (SNB-19): > 100 µM (inactive); GI50 (SR): > 100 µM (inactive); GI50 (SW-620): > 100 µM (inactive); GI50 (T47D): > 100 µM (inactive); GI50 (TK-10): > 100 µM (inactive); GI50 (U-251): > 100 µM (inactive); GI50 (UACC-257): > 100 µM (inactive); GI50 (UO-31): > 100 µM (inactive)

Q: `NC(CCc1ccccc1)(C(=O)O)c1ccccc1` (centres undefined) was tested. Which GI50 (786-0) did it give?
A: > 100 µM (inactive)

Q: What about the GI50 (A498) of the same molecule?
A: > 100 µM (inactive)

Q: What about the GI50 (A549) of the same molecule?
A: > 100 µM (inactive)

Q: And the GI50 (ACHN)?
A: > 100 µM (inactive)

Q: And the GI50 (BT-549)?
A: > 100 µM (inactive)

Q: What about the GI50 (CAKI-1) of the same molecule?
A: > 100 µM (inactive)

Q: What about the GI50 (CCRF-CEM) of the same molecule?
A: > 100 µM (inactive)

Q: What about the GI50 (DU-145) of the same molecule?
A: > 100 µM (inactive)

Q: What about the GI50 (EKVX) of the same molecule?
A: > 100 µM (inactive)

Q: What about the GI50 (HCC 2998) of the same molecule?
A: > 100 µM (inactive)

Q: And the GI50 (HCT-116)?
A: > 100 µM (inactive)

Q: And the GI50 (HCT-15)?
A: > 100 µM

Q: And the GI50 (HOP-62)?
A: > 100 µM (inactive)

Q: What about the GI50 (HOP-92) of the same molecule?
A: > 100 µM (inactive)

Q: What about the GI50 (HT-29) of the same molecule?
A: > 100 µM (inactive)

Q: What about the GI50 (Hs-578T) of the same molecule?
A: > 100 µM (inactive)

Q: And the GI50 (IGROV-1)?
A: > 100 µM (inactive)

Q: What about the GI50 (K562) of the same molecule?
A: > 100 µM (inactive)

Q: And the GI50 (KM12)?
A: > 100 µM (inactive)

Q: What about the GI50 (LOX IMVI) of the same molecule?
A: > 100 µM (inactive)

Q: What about the GI50 (M14) of the same molecule?
A: > 100 µM (inactive)

Q: And the GI50 (MDA-MB-231)?
A: > 100 µM (inactive)

Q: And the GI50 (MDA-MB-435)?
A: > 100 µM (inactive)

Q: What about the GI50 (MDA-N) of the same molecule?
A: > 100 µM (inactive)

Q: And the GI50 (MOLT-4)?
A: > 100 µM (inactive)

Q: And the GI50 (Malme-3M)?
A: > 100 µM (inactive)

Q: And the GI50 (NCI-H226)?
A: > 100 µM (inactive)

Q: And the GI50 (NCI-H23)?
A: > 100 µM (inactive)

Q: And the GI50 (NCI-H460)?
A: > 100 µM (inactive)

Q: And the GI50 (NCI-H522)?
A: > 100 µM (inactive)

Q: What about the GI50 (NCI/ADR-RES) of the same molecule?
A: > 100 µM (inactive)

Q: What about the GI50 (OVCAR-3) of the same molecule?
A: > 100 µM (inactive)

Q: And the GI50 (OVCAR-4)?
A: > 100 µM (inactive)

Q: And the GI50 (OVCAR-5)?
A: > 100 µM (inactive)

Q: What about the GI50 (OVCAR-8) of the same molecule?
A: > 100 µM (inactive)

Q: And the GI50 (PC-3)?
A: > 100 µM (inactive)

Q: And the GI50 (RXF 393)?
A: > 100 µM (inactive)

Q: And the GI50 (SF-268)?
A: > 100 µM (inactive)

Q: And the GI50 (SF-295)?
A: > 100 µM (inactive)

Q: What about the GI50 (SK-MEL-28) of the same molecule?
A: > 100 µM (inactive)

Q: And the GI50 (SK-MEL-2)?
A: > 100 µM (inactive)

Q: And the GI50 (SK-MEL-5)?
A: > 100 µM (inactive)

Q: And the GI50 (SN12C)?
A: > 100 µM (inactive)

Q: What about the GI50 (SNB-19) of the same molecule?
A: > 100 µM (inactive)

Q: What about the GI50 (SNB-75) of the same molecule?
A: > 100 µM (inactive)

Q: And the GI50 (SR)?
A: > 100 µM (inactive)

Q: And the GI50 (SW-620)?
A: > 100 µM (inactive)

Q: And the GI50 (T47D)?
A: > 100 µM (inactive)

Q: What about the GI50 (TK-10) of the same molecule?
A: > 100 µM (inactive)

Q: And the GI50 (U-251)?
A: > 100 µM (inactive)

Q: And the GI50 (UACC-257)?
A: > 100 µM (inactive)

Q: What about the GI50 (UACC-62) of the same molecule?
A: > 100 µM (inactive)

Q: And the GI50 (UO-31)?
A: > 100 µM (inactive)
